Tests used:
APJ = APJ (Homo sapiens (Human), UniProt P35414); test: [35S]GTPγS binding assay on membranes from CHO cells stably expressing human APJ receptor; format: biochemical; settings: read-out: Activity hAPJ SPA EC50 IP
Procedure: A GTPγS binding assay was performed on membranes prepared from CHO cells stably expressing human APJ receptor. The optimum experimental conditions for the concentrations of GDP, MgCl2, and NaCl in the assay buffer were initially determined. The assay was performed in assay buffer [20 mM HEPES, pH 7.5, 5 mM MgCl2, and 0.1% (w/v) BSA with 200 mM NaCl, 3 M GDP] and membranes expressing human APJ receptor/well along with WGA PS beads. The reaction was initiated by addition of 0.2 nM [^35S]GTPγS (Perkin Elmer Life and Analytical Sciences, Waltham USA) in the absence or presence of various ligands and incubated at RT for 90 min. Nonspecific binding was determined in the presence of 100 M GTPγS and was always less than 0.2% of total binding.

[1] = system: naive Sprague Dawley rat hearts; settings: ex vivo isolated perfused rat heart, percent change over vehicle; for Isolated Heart Assay dP/dtmax(%): contractility; for Isolated Heart Assay dP/dtmin(%): relaxation (lusitropic)

Chain of APJ (P35414 whole entry, the tested form may be a part): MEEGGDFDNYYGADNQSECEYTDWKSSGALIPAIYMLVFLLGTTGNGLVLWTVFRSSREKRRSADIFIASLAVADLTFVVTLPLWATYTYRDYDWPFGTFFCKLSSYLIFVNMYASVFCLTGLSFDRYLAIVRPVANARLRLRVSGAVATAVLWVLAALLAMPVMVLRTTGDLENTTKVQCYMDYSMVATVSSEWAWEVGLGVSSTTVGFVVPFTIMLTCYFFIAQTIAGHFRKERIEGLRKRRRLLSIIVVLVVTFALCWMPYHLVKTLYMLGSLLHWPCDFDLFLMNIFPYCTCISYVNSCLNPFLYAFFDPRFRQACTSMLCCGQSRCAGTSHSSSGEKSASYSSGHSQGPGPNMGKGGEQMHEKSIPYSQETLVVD

Row | Compound | EC50 (APJ) [nM] | Isolated Heart Assay dP/dtmax(%) [1] [%] | Isolated Heart Assay dP/dtmin(%) [1] [%]
1 | COc1cccc(OC)c1-n1c(NS(=O)(=O)[C@@H](C)Cc2ncc(F)cn2)nnc1-c1cncc(C)c1 (mixture of isomers) [Example 207.0, (S)-N-(4-(2,6-dimethoxyphenyl)-5-(5-methylpyridin-3-yl)-4H-1,2,4-triazol-3-yl)-1-(5-fluoropyrimidin-2-yl)propane-2-sulfonamide and (R)-N-(4-(2,6-dimethoxyphenyl)-5-(5-methylpyridin-3-yl)-4H-1,2,4-triazol-3-yl)-1-(5-fluoropyrimidin-2-yl)propane-2-sulfonamide] | 3.3 |  | 
2 | COc1cccc(OC)c1-n1c(NS(=O)(=O)[C@@H](C)Cc2ncc(F)cn2)nnc1-c1cnccc1C (mixture of isomers) [Example 216.0, (2S)-N-(4-(2,6-dimethoxyphenyl)-5-(4-methyl-3-pyridinyl)-4H-1,2,4-triazol-3-yl)-1-(5-fluoro-2-pyrimidinyl)-2-propanesulfonamide and (2R)-N-(4-(2,6-dimethoxyphenyl)-5-(4-methyl-3-pyridinyl)-4H-1,2,4-triazol-3-yl)-1-(5-fluoro-2-pyrimidinyl)-2-propanesulfonamide] | 570 |  | 
3 | COc1cccc(OC)c1-n1c(NS(=O)(=O)[C@@H](C)Cc2ncc(F)cn2)nnc1-c1cncc(Cl)c1 (mixture of isomers) [Example 219.0, (2S)-N-(5-(5-chloro-3-pyridinyl)-4-(2,6-dimethoxyphenyl)-4H-1,2,4-triazol-3-yl)-1-(5-fluoro-2-pyrimidinyl)-2-propanesulfonamide and (2R)-N-(5-(5-chloro-3-pyridinyl)-4-(2,6-dimethoxyphenyl)-4H-1,2,4-triazol-3-yl)-1-(5-fluoro-2-pyrimidinyl)-2-propanesulfonamide] | 8.5 |  | 
4 | CCNC(=O)c1cccc(-c2nnc(NS(=O)(=O)[C@@H](C)Cc3ncc(F)cn3)n2-c2c(OC)cccc2OC)n1 (mixture of isomers) [Example 228.0, 6-(4-(2,6-dimethoxyphenyl)-5-((((1S)-2-(5-fluoro-2-pyrimidinyl)-1-methylethyl)sulfonyl)amino)-4H-1,2,4-triazol-3-yl)-N-ethyl-2-pyridinecarboxamide and 6-(4-(2,6-dimethoxyphenyl)-5-((((1R)-2-(5-fluoro-2-pyrimidinyl)-1-methylethyl)sulfonyl)amino)-4H-1,2,4-triazol-3-yl)-N-ethyl-2-pyridinecarboxamide] | 5.3 |  | 
5 | COc1cccc(OC)c1-n1c(NS(=O)(=O)[C@@H](C)[C@H](O)c2ccc(C#N)cc2)nnc1-c1cncc(C)c1 (mixture of isomers) [Example 247.0, (1R,2S)-1-(4-cyanophenyl)-N-(4-(2,6-dimethoxyphenyl)-5-(5-methyl-3-pyridinyl)-4H-1,2,4-triazol-3-yl)-1-hydroxy-2-propanesulfonamide and (1S,2R)-1-(4-cyanophenyl)-N-(4-(2,6-dimethoxyphenyl)-5-(5-methyl-3-pyridinyl)-4H-1,2,4-triazol-3-yl)-1-hydroxy-2-propanesulfonamide] | 3.8 |  | 
6 | COc1cccc(-c2nnc(NS(=O)(=O)[C@H](C)[C@@H](O)c3cn4ccccc4n3)n2-c2c(OC)cccc2OC)n1 (mixture of isomers) [Example 256.0, (1S,2R)-N-(4-(2,6-dimethoxyphenyl)-5-(6-methoxypyridin-2-yl)-4H-1,2,4-triazol-3-yl)-1-hydroxy-1-(imidazo[1,2-a]pyridin-2-yl)propane-2-sulfonamide and (1R,2S)-N-(4-(2,6-dimethoxyphenyl)-5-(6-methoxypyridin-2-yl)-4H-1,2,4-triazol-3-yl)-1-hydroxy-1-(imidazo[1,2-a]pyridin-2-yl)propane-2-sulfonamide] | 0.4 |  | 
7 | COc1cccc(-c2nnc(NS(=O)(=O)C[C@@H](O)c3cn4ccccc4n3)n2-c2c(OC)cccc2OC)n1 (mixture of isomers) [Example 257.0, (S)-N-(4-(2,6-dimethoxyphenyl)-5-(6-methoxypyridin-2-yl)-4H-1,2,4-triazol-3-yl)-2-hydroxy-2-(imidazo[1,2-a]pyridin-2-yl)ethanesulfonamide and (R)-N-(4-(2,6-dimethoxyphenyl)-5-(6-methoxypyridin-2-yl)-4H-1,2,4-triazol-3-yl)-2-hydroxy-2-(imidazo[1,2-a]pyridin-2-yl)ethanesulfonamide] | 0.73 |  | 
8 | COc1cccc(-c2nnc(NS(=O)(=O)[C@H](C)[C@@H](O)c3cn(C)cn3)n2-c2c(OC)cccc2OC)n1 (mixture of isomers) [Example 258.0, (1S,2R)-N-(4-(2,6-dimethoxyphenyl)-5-(6-methoxypyridin-2-yl)-4H-1,2,4-triazol-3-yl)-1-hydroxy-1-(1-methyl-1H-imidazol-4-yl)propane-2-sulfonamide and (1R,2S)-N-(4-(2,6-dimethoxyphenyl)-5-(6-methoxypyridin-2-yl)-4H-1,2,4-triazol-3-yl)-1-hydroxy-1-(1-methyl-1H-imidazol-4-yl)propane-2-sulfonamide] | 2 |  | 
9 | COc1cccc(OC)c1-n1c(NS(=O)(=O)CCc2ccc(F)cc2C#N)nnc1-c1cncc(C)c1 [Example 621.0, 2-(2-cyano-4-fluorophenyl)-N-(4-(2,6-dimethoxyphenyl)-5-(5-methyl-3-pyridinyl)-4H-1,2,4-triazol-3-yl)ethanesulfonamide] |  | 7.4 | 6.0
10 | COc1ncnc(OC)c1-n1c(NS(=O)(=O)[C@@H](C)[C@H](C)c2ncc(Cl)cn2)nnc1-c1cccnc1 [Example 709.0, (2S,3R)-3-(5-chloro-2-pyrimidinyl)-N-(4-(4,6-dimethoxy-5-pyrimidinyl)-5-(3-pyridinyl)-4H-1,2,4-triazol-3-yl)-2-butanesulfonamide] |  | 6.0 | 3.0
11 | COc1cccc(-c2nnc(NS(=O)(=O)[C@@H](C)[C@H](C)c3ncc(Cl)cn3)n2-c2c(OC)ncnc2OC)n1 [Example 710.0, (2S,3R)-3-(5-chloro-2-pyrimidinyl)-N-(4-(4,6-dimethoxy-5-pyrimidinyl)-5-(6-methoxy-2-pyridinyl)-4H-1,2,4-triazol-3-yl)-2-butanesulfonamide] |  | 12.7 | 10.3
12 | COc1cccc(-c2nnc(NS(=O)(=O)[C@@H](C)[C@H](C)c3ncc(C)cn3)n2-c2c(F)cccc2F)n1 [Example 784.0, (2S,3R)-N-(4-(2,6-difluorophenyl)-5-(6-methoxy-2-pyridinyl)-4H-1,2,4-triazol-3-yl)-3-(5-methyl-2-pyrimidinyl)-2-butanesulfonamide] |  | 4.3 | 1.93
13 | COc1cccc(-c2nnc(NS(=O)(=O)[C@@H](C)[C@H](C)c3cnc(C)cn3)n2-c2c(OC)ncnc2OC)n1 [Example 799.0, (2S,3R)-N-(4-(4,6-dimethoxy-5-pyrimidinyl)-5-(6-methoxy-2-pyridinyl)-4H-1,2,4-triazol-3-yl)-3-(5-methyl-2-pyrazinyl)-2-butanesulfonamide] |  | 7.8 | 14.1
14 | COc1cnc([C@@H](C)[C@H](C)S(=O)(=O)Nc2nnc(-c3cccnc3)n2-c2c(OC)ncnc2OC)cn1 [Example 803.0, (2S,3R)-N-(4-(4,6-dimethoxy-5-pyrimidinyl)-5-(3-pyridinyl)-4H-1,2,4-triazol-3-yl)-3-(5-methoxy-2-pyrazinyl)-2-butanesulfonamide] |  | 11.4 | 10.0
